Assays:
EAAT2 = assay: Spinal cord organotypic culture screen for EAAT2 protein expression (slot blot); format: cell-based, rat
Description: Screening Assay for EAAT2 Protein overexpression. […] Organotypic Spinal Cord. […] Briefly, 300 um sections of rat lumbar spinal cord, from postnatal day 8-10 rat pups, are placed on Millipore Millicell CM semipermeable membranes. Each well contains 5 slices (FIG. 2A). […] Each drug (10-100 μM) was added for 3 days, along with cell culture medium/serum. Cultures were harvested and 5-50 μg of tissue was applied to slot blot apparatus for detection of EAAT2 by standard Western blotting/chemiluminescence methods described in the past. […] All antipeptide antibodies were affinity purified and highly specific for transporter subtypes. […] For each antibody slot blot, the homogenates used are expected to be within the linear range for antibody detection, based on prior standard curves. Screening Library-Assay Design. […] The library is composed of 1040 compounds in 96 well plates, that also included positive control for transporter synthesis (dibutyryl cyclic AMP [dbcAMP], GDNF). […] Each compound was studied at a final concentration of 10-100 μM. All assays were performed in duplicate. Data Analysis. All blots were analyzed by laser densitometry (BioRad Image Quant) and the duplicate points were averaged. Each blot included a positive control standard (e.g. dbcAMP) and a negative control standard (e.g. serum, DMSO). […]

[1] = tested on: large ventral horn motor neurons in organotypic spinal cord cultures; assay: In vitro model of chronic motor neurodegeneration (THA, organotypic spinal cord cultures); format: cell-based, rat; details: THA 100 μM, ceftriaxone 0 to 100 μM, 4 weeks
Description: In vitro model of chronic motor neurodegeneration (FIG. 7B). A model of chronic neurodegeneration was used, based on the blockade of glutamate transport in spinal cord organotypic cultures, with the non specific inhibitor threo-hytdroyxaspartate (THA) or TBOA. Chronic incubation of cultures with THA (or TBOA) leads to chronic increase in extra cellular glutamate and subsequent slow death of motor neurons (over 4 weeks).
To determine if drug induced GLT1 promoter activation, and the subsequent over expression of GLT1 protein could be neuroprotective, we used the organotypic spinal cord paradigm. Organotypic spinal cord cultures were prepared from lumbar spinal cords of 8-day-old rat pups, as described previously. […] No drugs were added for the first 7 days following culture preparation. THA was then added to experimental cultures at a concentration of 100 μM, which produces death of motor neurons within 3 to 4 weeks. […] After 4 weeks, cultures were fixed, and immuostained for neurofilament (SMI-32, Sternberger) to quantify large ventral horn motor neurons (a well established method to follow motor neuron survival in this system).

[2] = tested on: cultures prepared from GLT-1 null mice; assay: Chronic motor neurodegeneration model in cultures prepared from GLT-1 null mice; format: cell-based; details: not shown
G93A SOD1 mice = assay: In vivo neuroprotection in the G93A SOD1 mouse
Description: Numerous studies have documented a contributory role for excess glutamate in this mouse model- and role for modulating glutamate receptors or transporters in neuroprotective strategies. Guo H., et al. Hum Mol Genet. 2003; 12:2519-2532. Modest over expression—by a transgenic approach—can alter disease onset and/or survival.

[3] = tested on: primary cortical mixed neuronal-glial cell cultures; details: 1 μM added 48 hours prior to 1 hour OGD; 50% without drug
Description: Method. Primary cortical mixed neuronal-glial cell cultures are prepared from gestation day 14-16 CD1 mice. The preparation of these cultures from mouse fetal cortex is well-described. Experiments are performed at days in vitro 13-15. In the experimental condition, cultures are subjected to oxygen glucose deprivation (OGD), an in-vitro model of ischemia. Cortical cells are either subjected to control treatment (media, modified Earle's balanced salt solution including glucose and bubbled with 5% CO2 95% O2, is changed alongside treatment groups, but no OGD is performed), or 5 minutes (sublethal) of OGD (using modified Earle's balanced salt solution which is devoid of glucose and bubbled with 10% H2, 85% N2, and 5% to deoxygenate). Anaerobic conditions are achieved using an anaerobic chamber at 37° C. OGD is terminated by exchange of media back to oxygenated growing medium. Twenty-four hours following the above, cortical cells are subjected either to no treatment, or one hour of OGD. Neuronal survival is determined by computer-assisted cell counting after staining with the fluorescent vital dyes propidium iodide (as an indicator of neuronal death) and Hoechst 33342 (as an indicator of total number of neurons) and is presented as percent of cell death. Glial nuclei fluoresce at a lower intensity and are gated out. […] Following 1 hour OGD, cells are returned to growing medium without drugs.

[4] = 200 mg/kg ip from approximately 12 weeks of age

For CO/N=C(\C(=O)N[C@@H]1C(=O)N2C(C(=O)O)=C(CSc3nc(=O)c(=O)[nH]n3C)CS[C@H]12)c1csc(N)n1 [ceftriaxone], the “increase of GLT1 protein and function” value (EAAT2; at the concentration used for neuroprotection (Preliminary Data Phases 1 and 2)) was “at least 3 fold”, the EC50 (EAAT2; follow-up dose response analysis, spinal cord organotypic cultures) was 3.5 µM and the motor neuron loss [1] was “prevented motor neurons loss in a dose dependent manner”. The “neuroprotection in GLT-1 null cultures” value [2] was “neuroprotection cannot be seen”, the “duration of strength effect” value (G93A SOD1 mice; [4]) was 4 weeks and the “time after treatment at which strength effect was observed” value (G93A SOD1 mice; [4]) was at most 7 days. For the same molecule, the “increase in over all survival” value (G93A SOD1 mice; 200 mg/kg ip from approximately 12 weeks of age (disease onset)) was 7 to 10 days, the “loss of muscle strength (grip strength)” value (G93A SOD1 mice; 200 mg/kg ip from approximately 12 weeks of age, preservation lost by 18 weeks of age) was “significantly delayed loss of muscle strength” and the “percentage of neuronal cell death after 1 hour OGD” value [3] was 20%.

Reference: patent US20060121488A1, “Glutamate transport modulatory compounds and methods” (priority 2003, published 2006)
